Experimental findings from PMC5556071, “ATR inhibition facilitates targeting of leukemia dependence on convergent nucleotide biosynthetic pathways” (Nature Communications, 2017) are described below.

Common to all, as to type: cell-based, human
The subject of one assay is CEM cells. Kind of assay: Proliferation assay (CellTiter-Glo, 72 h). The procedure: Cells were plated in 384-well plates (1000 cells/well for suspension cell lines and 500 cells/well for adherent cell lines in 30 µl volume). Drugs were serially diluted to the desired concentrations and an equivalent volume of DMSO was added to vehicle control. Ten microliter of the 4× diluted drugs were added to each well. Following 72 h incubation, ATP content was measured using CellTiter-Glo reagent according to manufacturer’s instructions (Promega, CellTiter-Glo Luminescent Cell Viability Assay), and analyzed by SpectraMax luminometer (Molecular Devices). IC50 values, concentrations required to inhibit proliferation by 50% compared to DMSO treated cells, were calculated using Prism 6.0 h (Graphpad Software).

A further assay deals with CEM T-ALL cells. The assay is described as follows: Cell cycle kinetics by EdU incorporation (flow cytometry) after release from Palbociclib G1 arrest. Particulars: for S1 / S2 / S3: synchronous CEM, 12 h after G1 release. How it is done: CEM T-ALL cells were synchronized in G1 phase, and then treated as indicated. Cells were pulsed with EdU 1 h before collection at different time points. Cells were fixed 4% paraformaldehyde, permeabilized with perm/wash reagent (Invitrogen), stained with Azide-AF647 (using click-chemistry, Invitrogen; Click-iT EdU Flow cytometry kit, #C10634) and FxCycle-Violet (Invitrogen), and then analyzed flow cytometry (a detailed description is available in the Supplementary Information).
Cell cycle synchronization. Cells were treated with a CDK4/6 inhibitor, Pablociclib or PD-0332991 (Selleckchem, S1116) for 18 h to synchronize them in the G1 phase. Subsequently, cells were washed twice with PBS containing 2% FBS (Omega Scientific) and released into fresh media. […]
0.5 ml of propidium iodide (Calbiochem, #P3566, 1 µg/mL) solution containing Ribonuclease A and 0.3% Triton-X 100. The samples were protected from light before acquisition by flow cytometry.
Cell cycle kinetics and cell cycle progression by intracellular detection of DNA-incorporated 5-ethynyl-2-deoxyuridine (EdU). CEM T-ALL cells were plated at a density of 0.5 x 10^6 cells/mL. Cells were pulsed with 10 µM EdU (Invitrogen) for 1 h, washed twice with PBS, and released in fresh media containing 5 µM deoxyribonucleosides, with and without drugs. Cells were collected at different time points following release in fresh media, and then fixed with 4% paraformaldehyde and permeabilized using saponin perm/wash reagent (Invitrogen). Cells were then stained with azide-Alexa Fluor 647 by Click reaction according to manufacturer’s protocol (Invitrogen; Click-iT EdU Flow cytometry kit, #C10634). The total DNA content was assessed by staining the samples with FxCycle-Violet (Invitrogen, #F10347) at 1 µg/mL final concentration in PBS containing 2% FBS. To measure the cell cycle progression of a synchronous population of cells, cells were first arrested in the G1 phase following treatment with 1 µM Palbociclib for 18 h, then washed and released in fresh media supplemented with drugs. Before collecting and fixing the cells at different time points, the cells were pulse-labeled with 10 µM EdU for 1 h, and then labeled with azide-Alexa Fluor 647 (Invitrogen; Click-iT EdU Flow cytometry kit). Total DNA content was assessed by staining with FxCycle-Violet (Invitrogen) at 1 µg/mL final concentration in PBS containing 2% FBS. pH2A.X staining. Cells were harvested, fixed and permeabilized with cytofix/cytoperm (BD biosciences, #554722) for 15 min on ice protected from light. Cells were washed, then resuspended in 100 µL 1X Perm/wash buffer (BD Sciences) and incubated for 15 min on ice. The cells were washed, then resuspended in 50 µL with phospho-Histone H2A.X (Ser139) antibody conjugated to fluorochrome FITC (EMD Millipore, #05-636, 1:800 dilutions in perm/wash) for 20 min in the dark at RT. Subsequently, cells were washed and stained with 0.5 mL of DAPI (Invitrogen, #D1306) for DNA content (1 µg/mL in 2% FBS in PBS) before data […]
Measurement of ssDNA levels using the F7-26 monoclonal antibody. Cells were harvested and fixed with ice-cold methanol:PBS (6:1 v/v) for 24h. Staining with F7-26 monoclonal mouse antibody was performed according to manufacturer’s instructions (EMD Millipore, #MAB3299). Fixed cells were resuspended in 250 µL of formamide and heated in a water bath at 75 °C for 10 min. Cells were then allowed to equilibrate to room temperature and then washed with 2 mL of 1% non-fat dry milk in PBS for 15 min. Subsequently, cells were resuspended in 100 µL of anti-ssDNA Mab F7-26 (EMD Millipore, 1:10 in 5% FBS in PBS) and incubated for 45 min at room temperature. Cells were washed with PBS and stained with 100 µL of fluorescence-conjugated
On the technique in general: In flow cytometry, cells or beads pass a laser one at a time.

For a further assay, the system named is CHEK1 pS345. The assay is described as follows: Western blot of replication stress marker in CEM cells. The procedure:
Cells were lysed using RIPA buffer supplemented with protease (ThermoFisher, 78,430) and phosphatase (ThermoFisher, 78,420) inhibitors, scraped, sonicated, and centrifuged (20,000 × g at 4 °C). Protein concentrations in the supernatant were determined using the Micro BCA Protein Assay kit (Thermo), and equal amounts of protein were resolved on pre-made Bis-Tris polyacrylamide gels (Life Technologies). Primary antibodies: pS345 CHEK1 (Cell signaling, #2348 L, 1:1000), pT68 CHEK2 (Cell signaling, #2197 S, 1:1000), pS139 H2A.X (Millipore, 05-636, 1:1000), clvd. Casp8 (Cell signaling, #8592, 1:1000), clvd. Casp9 (Cell signaling, #9502, 1:1000), clvd. Casp3 (Cell signaling, #9662, 1:1000), clvd. PARP (Cell signaling, #5625 P, 1:1000), and anti-actin (Cell Signaling Technology, 9470, 1:10,000). Primary antibodies were stored in 5% BSA (Sigma-Aldrich) and 0.1% NaN3 in TBST solution. Anti-rabbit IgG HRP-linked (Cell Signaling Technology, 7074, 1:2500) and anti-mouse IgG HRP-linked (Cell Signaling Technology, 7076, 1:2500) were used as secondary antibodies. Chemiluminescent substrates (ThermoFisher Scientific, 34,077 and 34,095) and autoradiography film (Denville) were used for detection.
A general note: A western blot detects proteins with antibodies after separation by electrophoresis.

For a further assay, the system named is Jurkat cells. Kind of assay: Cell cycle histograms (propidium iodide flow cytometry). Particulars: dCKi 1 µM, 24 h. How it is done: Cell cycle histograms. Cells were plated at a density of 0.5 x 10^6 cells/mL in respective media or drug treated
media. Following 24 h incubation, cells were harvested and washed twice with PBS twice before staining with
0.5 ml of propidium iodide (Calbiochem, #P3566, 1 µg/mL) solution containing Ribonuclease A and 0.3%
Triton-X 100. The samples were protected from light before acquisition by flow cytometry. […]

[1] abbreviates: Suppl. Fig. 5e, BCX-1777 100 nM.

In turn, `NC(=S)N/N=C/c1ncccc1N` [3-AP] yielded a half-maximal inhibitory concentration (IC50) with CEM cells of 1060 nM.

`CNCc1ccc(-c2cc(-c3nc(-c4ccc(S(=O)(=O)C(C)C)cc4)cnc3N)on2)cc1` [VE-822]: in the assay on CEM T-ALL cells (12 h after release from G1 arrest), the “fewer cells entered S2 compared to untreated cells” value turned out to be 16%. For the same compound, in the assay on CEM T-ALL cells (+ dNTP (10 µM)), the S1 was determined as 43%, the S2 came out at 52% and the S3 is 1.5%. In the assay on CEM T-ALL cells (– dNTP), this compound returned an S1 of 58%, an S2 of 37% and an S3 of 1%. Moreover, the “CHEK1 pS345 induced by RNR inhibition” value in the assay with CHEK1 pS345 (0.5 h time point) was “abrogated”. In addition, the “CHEK1 pS345 induced by RNR inhibition” value in the assay with CHEK1 pS345 (4 h time point) is given as “partially inhibited”. In the assay with CHEK1 pS345 (CEM cells, VE-822 1 µM, 24 h), the “CHEK1 pS345 levels” value was “reduced”.

Consider `COc1ccc(-c2nc([C@@H](C)Sc3nc(N)cc(N)n3)c(C)s2)cc1OCCNS(C)(=O)=O` [dCKi], for which the “percentage of cell population in S2* (late S-phase)” value in the assay with CEM T-ALL cells (12 h following release from G1 arrest, DI-82 1 µM) amounted to 6.1%. In addition, in the assay with CEM T-ALL cells (+ dNTP (10 µM)), the S1 amounted to 42%, the S2 is given as 42% and the S3 stood at 14%. In the assay on CEM T-ALL cells (– dNTP), this compound came in with an S1 of 66%, an S2 of 22% and an S3 of 8.4%. Moreover, in the assay on Jurkat cells (Suppl. Fig. 4e, dCF 10 µM), the “cells in G2/M” value is 17% and the “cells in S phase” value was determined as 30%. Besides, in the assay with Jurkat cells (setting [1]), the “cells in G2/M” value was found to be 14% and the “cells in S phase” value worked out at 32%.

Usually IC50 stands for the concentration needed to halve the response being measured.
